# Where two headings read alike, the source gives them in different places.
# Assays:
# Experiment in all cases: KINOMEscan (ScanMAX) kinase profiling
# Assay type in all cases: binding
# panel of 468 kinases [1] = target: T1, panel of 468 kinases (Homo sapiens, UniProt O75116); conditions: ROCK2; 1 μM; read-out: % control
# T1 construct: purchased KINOMEscan (ScanMAX) service
# panel of 468 kinases [2] = target: T2, panel of 468 kinases (Homo sapiens, UniProt O95382); conditions: ASK2; 1 μM; read-out: % control
# T2 construct: purchased KINOMEscan (ScanMAX) service
# T2 sequence (O95382 1-1288): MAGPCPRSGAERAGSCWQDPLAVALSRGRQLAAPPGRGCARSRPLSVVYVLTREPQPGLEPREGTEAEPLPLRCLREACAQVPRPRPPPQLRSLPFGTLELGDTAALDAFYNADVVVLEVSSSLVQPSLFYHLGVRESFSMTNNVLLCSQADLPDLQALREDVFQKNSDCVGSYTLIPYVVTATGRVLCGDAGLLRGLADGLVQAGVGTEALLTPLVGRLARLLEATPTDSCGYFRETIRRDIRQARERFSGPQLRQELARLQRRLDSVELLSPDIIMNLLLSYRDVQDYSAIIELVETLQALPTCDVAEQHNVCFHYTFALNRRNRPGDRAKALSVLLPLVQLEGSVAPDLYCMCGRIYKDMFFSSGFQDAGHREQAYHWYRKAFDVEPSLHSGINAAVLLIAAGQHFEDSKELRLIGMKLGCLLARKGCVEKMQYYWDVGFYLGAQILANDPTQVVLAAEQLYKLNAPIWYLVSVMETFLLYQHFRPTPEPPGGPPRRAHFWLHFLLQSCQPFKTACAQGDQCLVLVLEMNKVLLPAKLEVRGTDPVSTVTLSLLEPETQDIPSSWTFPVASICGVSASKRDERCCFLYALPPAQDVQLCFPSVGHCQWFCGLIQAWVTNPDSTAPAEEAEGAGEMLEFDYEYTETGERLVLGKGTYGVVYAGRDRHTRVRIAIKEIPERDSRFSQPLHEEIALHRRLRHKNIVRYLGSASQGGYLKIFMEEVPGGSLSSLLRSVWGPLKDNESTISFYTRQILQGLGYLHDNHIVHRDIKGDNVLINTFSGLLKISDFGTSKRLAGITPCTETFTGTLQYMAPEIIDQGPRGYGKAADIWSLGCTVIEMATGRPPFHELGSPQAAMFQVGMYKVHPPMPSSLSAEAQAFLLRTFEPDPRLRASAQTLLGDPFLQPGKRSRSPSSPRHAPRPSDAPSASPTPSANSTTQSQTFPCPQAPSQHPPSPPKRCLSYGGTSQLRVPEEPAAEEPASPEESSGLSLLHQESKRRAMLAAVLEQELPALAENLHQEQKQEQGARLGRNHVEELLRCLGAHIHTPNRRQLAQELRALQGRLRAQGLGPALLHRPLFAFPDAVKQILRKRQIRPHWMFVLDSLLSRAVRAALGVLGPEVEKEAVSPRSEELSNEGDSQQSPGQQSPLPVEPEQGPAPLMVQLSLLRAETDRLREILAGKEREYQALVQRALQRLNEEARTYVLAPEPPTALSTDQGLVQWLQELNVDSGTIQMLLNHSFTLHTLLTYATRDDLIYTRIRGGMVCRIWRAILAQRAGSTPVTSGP
# panel of 468 kinases [3] = target: T3, panel of 468 kinases (Homo sapiens, UniProt P29597); conditions: 1 μM, read-out: % control
# T3 construct: purchased KINOMEscan (ScanMAX) service
# panel of 468 kinases [4] = target: T4, panel of 468 kinases (Homo sapiens, UniProt P41240); conditions: CSK; 1 μM; read-out: % control
# T4 construct: purchased KINOMEscan (ScanMAX) service
# panel of 468 kinases [5] = target: T5, panel of 468 kinases (Homo sapiens, UniProt P42336, H1047Y); conditions: PIK3CA(H1047Y); 1 μM; read-out: % control
# T5 construct: purchased KINOMEscan (ScanMAX) service
# panel of 468 kinases [6] = target: T6, panel of 468 kinases (Homo sapiens, UniProt P42336, I800L); conditions: PIK3CA(I800L); 1 μM; read-out: % control
# T6 construct: purchased KINOMEscan (ScanMAX) service
# panel of 468 kinases [7] = target: T7, panel of 468 kinases (Homo sapiens, UniProt Q9H1R3); conditions: MYLK2; 1 μM; read-out: % control
# T7 construct: purchased KINOMEscan (ScanMAX) service
# panel of 468 kinases [8] = target: T8, panel of 468 kinases (Homo sapiens, UniProt Q9UKI8); conditions: TLK1; 1 μM; read-out: % control
# T8 construct: purchased KINOMEscan (ScanMAX) service
# T8 sequence (Q9UKI8 1-766): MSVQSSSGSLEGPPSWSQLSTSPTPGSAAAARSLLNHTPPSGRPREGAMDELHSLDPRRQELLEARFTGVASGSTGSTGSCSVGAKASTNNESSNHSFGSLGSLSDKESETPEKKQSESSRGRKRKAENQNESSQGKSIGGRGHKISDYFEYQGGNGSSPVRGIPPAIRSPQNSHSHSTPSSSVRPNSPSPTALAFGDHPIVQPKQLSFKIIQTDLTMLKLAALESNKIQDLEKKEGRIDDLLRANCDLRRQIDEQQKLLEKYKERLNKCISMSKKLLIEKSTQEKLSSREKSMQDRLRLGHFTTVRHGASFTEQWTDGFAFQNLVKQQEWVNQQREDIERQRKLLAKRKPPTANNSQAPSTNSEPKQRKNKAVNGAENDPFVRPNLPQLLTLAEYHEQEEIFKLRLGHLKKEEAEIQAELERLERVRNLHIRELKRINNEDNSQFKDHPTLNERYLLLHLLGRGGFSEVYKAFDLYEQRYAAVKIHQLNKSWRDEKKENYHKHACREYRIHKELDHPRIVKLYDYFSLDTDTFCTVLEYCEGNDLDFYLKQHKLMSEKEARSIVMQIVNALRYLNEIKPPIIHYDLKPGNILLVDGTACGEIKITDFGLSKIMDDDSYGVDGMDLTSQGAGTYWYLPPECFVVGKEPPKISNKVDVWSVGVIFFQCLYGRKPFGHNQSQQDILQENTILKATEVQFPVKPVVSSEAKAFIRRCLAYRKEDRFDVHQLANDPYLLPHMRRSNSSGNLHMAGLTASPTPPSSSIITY
# T7 sequence (Q9H1R3 whole entry): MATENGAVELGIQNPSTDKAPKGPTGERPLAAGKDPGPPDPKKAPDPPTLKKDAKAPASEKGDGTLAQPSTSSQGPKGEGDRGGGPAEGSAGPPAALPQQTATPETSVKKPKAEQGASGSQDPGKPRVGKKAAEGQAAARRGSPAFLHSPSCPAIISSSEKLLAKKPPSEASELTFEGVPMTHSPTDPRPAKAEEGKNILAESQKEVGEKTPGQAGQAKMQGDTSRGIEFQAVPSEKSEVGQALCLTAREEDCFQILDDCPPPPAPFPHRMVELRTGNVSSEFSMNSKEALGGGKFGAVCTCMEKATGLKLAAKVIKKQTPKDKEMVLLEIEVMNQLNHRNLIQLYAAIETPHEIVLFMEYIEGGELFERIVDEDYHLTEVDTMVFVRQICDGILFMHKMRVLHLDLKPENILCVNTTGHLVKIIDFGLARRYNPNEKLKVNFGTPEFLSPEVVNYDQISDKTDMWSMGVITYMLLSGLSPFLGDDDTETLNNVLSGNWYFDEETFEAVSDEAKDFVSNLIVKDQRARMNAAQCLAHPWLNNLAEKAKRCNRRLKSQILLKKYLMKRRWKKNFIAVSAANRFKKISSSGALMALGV
# T3 sequence (P29597 whole entry): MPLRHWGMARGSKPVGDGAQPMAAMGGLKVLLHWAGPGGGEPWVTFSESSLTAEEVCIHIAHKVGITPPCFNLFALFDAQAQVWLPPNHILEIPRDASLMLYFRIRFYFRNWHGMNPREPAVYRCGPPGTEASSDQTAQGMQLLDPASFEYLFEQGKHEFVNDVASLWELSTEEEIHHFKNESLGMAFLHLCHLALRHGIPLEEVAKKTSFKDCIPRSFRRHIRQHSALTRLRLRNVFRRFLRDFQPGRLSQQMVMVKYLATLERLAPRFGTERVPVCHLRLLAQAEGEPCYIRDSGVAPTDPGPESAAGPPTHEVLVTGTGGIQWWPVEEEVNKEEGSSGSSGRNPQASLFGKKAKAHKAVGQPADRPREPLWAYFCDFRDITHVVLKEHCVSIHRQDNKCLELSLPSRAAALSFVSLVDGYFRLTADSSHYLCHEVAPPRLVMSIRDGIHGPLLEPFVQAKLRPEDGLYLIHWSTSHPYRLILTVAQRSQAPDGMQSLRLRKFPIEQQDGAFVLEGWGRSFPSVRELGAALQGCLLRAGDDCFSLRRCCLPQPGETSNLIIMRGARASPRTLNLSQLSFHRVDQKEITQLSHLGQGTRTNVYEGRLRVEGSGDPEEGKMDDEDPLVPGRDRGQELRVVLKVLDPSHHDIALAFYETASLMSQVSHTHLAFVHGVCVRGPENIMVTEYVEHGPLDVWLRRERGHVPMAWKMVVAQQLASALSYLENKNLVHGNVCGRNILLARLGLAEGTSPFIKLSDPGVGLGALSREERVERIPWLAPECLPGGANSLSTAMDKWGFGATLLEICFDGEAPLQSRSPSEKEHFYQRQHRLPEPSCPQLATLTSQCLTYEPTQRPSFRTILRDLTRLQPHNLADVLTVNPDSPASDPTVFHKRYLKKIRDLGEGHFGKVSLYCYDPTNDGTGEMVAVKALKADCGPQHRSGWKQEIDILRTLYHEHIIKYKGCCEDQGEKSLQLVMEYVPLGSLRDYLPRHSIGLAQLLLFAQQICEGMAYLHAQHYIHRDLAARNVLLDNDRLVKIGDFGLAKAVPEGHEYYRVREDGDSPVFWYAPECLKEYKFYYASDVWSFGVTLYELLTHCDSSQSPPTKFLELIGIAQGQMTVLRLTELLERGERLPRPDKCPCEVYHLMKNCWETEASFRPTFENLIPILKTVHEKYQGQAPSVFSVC
# T4 sequence (P41240 whole entry): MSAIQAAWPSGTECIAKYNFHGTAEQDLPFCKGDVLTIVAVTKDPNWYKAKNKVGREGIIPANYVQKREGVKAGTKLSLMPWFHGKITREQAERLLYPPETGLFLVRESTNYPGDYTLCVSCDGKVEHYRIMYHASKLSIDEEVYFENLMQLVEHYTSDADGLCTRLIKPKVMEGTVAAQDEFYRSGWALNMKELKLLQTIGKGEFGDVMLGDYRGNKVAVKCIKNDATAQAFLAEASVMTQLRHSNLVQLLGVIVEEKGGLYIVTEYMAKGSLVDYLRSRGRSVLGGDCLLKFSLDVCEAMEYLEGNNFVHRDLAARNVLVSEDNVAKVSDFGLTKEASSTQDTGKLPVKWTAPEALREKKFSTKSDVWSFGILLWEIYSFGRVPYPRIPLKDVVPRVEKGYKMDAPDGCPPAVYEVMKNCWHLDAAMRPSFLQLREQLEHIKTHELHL
# T1 sequence (O75116 whole entry): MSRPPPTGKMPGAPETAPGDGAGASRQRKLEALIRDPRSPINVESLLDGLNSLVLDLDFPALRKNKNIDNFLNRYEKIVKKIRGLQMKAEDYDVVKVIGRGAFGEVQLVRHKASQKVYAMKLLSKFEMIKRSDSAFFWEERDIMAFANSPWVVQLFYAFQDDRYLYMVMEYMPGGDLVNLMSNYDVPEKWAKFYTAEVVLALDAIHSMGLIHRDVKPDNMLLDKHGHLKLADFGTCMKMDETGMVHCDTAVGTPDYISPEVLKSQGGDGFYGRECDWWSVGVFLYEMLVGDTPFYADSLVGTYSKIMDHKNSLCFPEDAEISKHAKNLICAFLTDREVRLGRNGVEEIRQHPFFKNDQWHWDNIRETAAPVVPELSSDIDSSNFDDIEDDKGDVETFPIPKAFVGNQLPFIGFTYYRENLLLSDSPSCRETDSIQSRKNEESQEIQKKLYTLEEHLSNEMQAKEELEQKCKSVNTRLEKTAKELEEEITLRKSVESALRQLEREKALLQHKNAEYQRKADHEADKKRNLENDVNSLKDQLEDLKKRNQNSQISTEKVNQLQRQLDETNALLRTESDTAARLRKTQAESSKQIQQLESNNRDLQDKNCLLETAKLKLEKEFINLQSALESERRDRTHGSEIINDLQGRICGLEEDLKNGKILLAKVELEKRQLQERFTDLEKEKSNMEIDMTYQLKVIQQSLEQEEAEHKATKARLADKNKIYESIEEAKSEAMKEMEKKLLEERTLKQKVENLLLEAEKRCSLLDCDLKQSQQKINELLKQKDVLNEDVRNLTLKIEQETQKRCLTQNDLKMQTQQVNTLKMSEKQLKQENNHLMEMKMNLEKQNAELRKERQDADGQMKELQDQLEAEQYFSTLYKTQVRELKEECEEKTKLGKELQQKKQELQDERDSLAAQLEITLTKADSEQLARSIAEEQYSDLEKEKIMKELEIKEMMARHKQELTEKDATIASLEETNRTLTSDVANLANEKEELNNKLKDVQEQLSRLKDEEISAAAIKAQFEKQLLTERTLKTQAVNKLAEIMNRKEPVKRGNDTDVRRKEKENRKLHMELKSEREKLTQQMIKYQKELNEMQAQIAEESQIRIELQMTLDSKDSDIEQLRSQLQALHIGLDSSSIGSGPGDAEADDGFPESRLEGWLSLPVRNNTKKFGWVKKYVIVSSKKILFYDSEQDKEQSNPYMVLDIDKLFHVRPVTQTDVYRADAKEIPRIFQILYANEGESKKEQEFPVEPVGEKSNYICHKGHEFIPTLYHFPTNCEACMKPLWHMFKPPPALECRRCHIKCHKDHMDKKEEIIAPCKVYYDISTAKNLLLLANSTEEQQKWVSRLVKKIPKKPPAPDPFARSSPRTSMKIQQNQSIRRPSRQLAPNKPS
# T5 sequence (P42336 whole entry H1047Y): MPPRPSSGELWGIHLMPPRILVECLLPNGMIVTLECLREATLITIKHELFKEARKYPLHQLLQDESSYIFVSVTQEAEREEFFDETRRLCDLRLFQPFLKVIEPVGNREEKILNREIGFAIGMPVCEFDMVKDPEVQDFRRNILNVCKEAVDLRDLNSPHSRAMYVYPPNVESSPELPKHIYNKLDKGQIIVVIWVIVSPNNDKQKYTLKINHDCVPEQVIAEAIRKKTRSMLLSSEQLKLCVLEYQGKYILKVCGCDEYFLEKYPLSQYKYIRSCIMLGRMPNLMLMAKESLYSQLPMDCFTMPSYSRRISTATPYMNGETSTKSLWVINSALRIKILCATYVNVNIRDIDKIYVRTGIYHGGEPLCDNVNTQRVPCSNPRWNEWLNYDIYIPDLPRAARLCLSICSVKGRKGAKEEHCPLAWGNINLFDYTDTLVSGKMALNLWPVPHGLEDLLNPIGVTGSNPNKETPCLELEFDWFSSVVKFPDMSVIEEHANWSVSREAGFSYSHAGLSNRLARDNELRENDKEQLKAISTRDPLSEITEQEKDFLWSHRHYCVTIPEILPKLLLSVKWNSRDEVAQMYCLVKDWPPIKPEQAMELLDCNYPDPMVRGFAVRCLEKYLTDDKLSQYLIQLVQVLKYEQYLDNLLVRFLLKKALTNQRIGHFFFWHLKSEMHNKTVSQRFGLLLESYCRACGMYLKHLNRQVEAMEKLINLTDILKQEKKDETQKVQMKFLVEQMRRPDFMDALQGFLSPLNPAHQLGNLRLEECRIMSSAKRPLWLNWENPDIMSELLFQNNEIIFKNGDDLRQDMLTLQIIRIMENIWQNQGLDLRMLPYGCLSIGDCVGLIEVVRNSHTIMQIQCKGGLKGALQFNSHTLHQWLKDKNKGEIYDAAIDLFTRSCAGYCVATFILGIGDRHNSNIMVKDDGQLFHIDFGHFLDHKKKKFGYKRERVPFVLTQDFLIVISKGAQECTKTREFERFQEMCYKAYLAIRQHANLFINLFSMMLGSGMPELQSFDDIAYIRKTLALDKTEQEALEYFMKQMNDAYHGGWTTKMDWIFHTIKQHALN
# T6 sequence (P42336 whole entry I800L): as the sequence (P42336 whole entry H1047Y) above, with I800L, Y1047H counted along it
smiles,measurement,setting,value
"CNc1nc(Nc2ccc(C(=O)N3CCC(N4CCOCC4)CC3)c3c2OCO3)nc2[nH]cc(Cl)c12 [Compound 75, (7-((5-chloro-4-(methylamino)-7H-pyrrolo[2,3-d]pyrimidin-2-yl)amino)benzo[d][1,3]dioxol-4-yl)(4-morpholinopiperidin-1-yl)methanone]",remaining binding at 1 µM,panel of 468 kinases [1],35%
same,remaining binding at 1 µM,panel of 468 kinases [2],39%
same,remaining binding at 1 µM,panel of 468 kinases [3]; TYK2(JH1domain-catalytic),46%
same,remaining binding at 1 µM,panel of 468 kinases [3]; TYK2(JH2domain-pseudokinase),100%
same,remaining binding at 1 µM,panel of 468 kinases [4],100%
same,remaining binding at 1 µM,panel of 468 kinases [5],68%
same,remaining binding at 1 µM,panel of 468 kinases [6],87%
same,remaining binding at 1 µM,panel of 468 kinases [7],86%
same,remaining binding at 1 µM,panel of 468 kinases [8],86%
"CNc1nc(Nc2ccc(S(=O)(=O)N3CCC(N4CCOCC4)CC3)cc2OC)nc2[nH]cc(Cl)c12 [Compound 12, 5-chloro-N2-(2-methoxy-4-((4-morpholinopiperidin-1-yl)sulfonyl)phenyl)-N4-methyl-7H-pyrrolo[2,3-d]pyrimidine-2,4-diamine]",remaining binding at 1 µM,panel of 468 kinases [1],86%
same,remaining binding at 1 µM,panel of 468 kinases [2],53%
same,remaining binding at 1 µM,panel of 468 kinases [3]; TYK2(JH1domain-catalytic),90%
same,remaining binding at 1 µM,panel of 468 kinases [3]; TYK2(JH2domain-pseudokinase),88%
same,remaining binding at 1 µM,panel of 468 kinases [4],100%
same,remaining binding at 1 µM,panel of 468 kinases [5],64%
same,remaining binding at 1 µM,panel of 468 kinases [6],74%
same,remaining binding at 1 µM,panel of 468 kinases [7],100%
same,remaining binding at 1 µM,panel of 468 kinases [8],89%
"CNc1nc(Nc2ccc(P3(=O)CCN(C4CCOCC4)CC3)cc2OC)nc2[nH]cc(Cl)c12 [Compound 77, 4-(4-((5-chloro-4-(methylamino)-7H-pyrrolo[2,3-d]pyrimidin-2-yl)amino)-3-methoxyphenyl)-1-(tetrahydro-2H-pyran-4-yl)-1,4-azaphosphinane 4-oxide]",remaining binding at 1 µM,panel of 468 kinases [1],96%
same,remaining binding at 1 µM,panel of 468 kinases [2],51%
same,remaining binding at 1 µM,panel of 468 kinases [3]; TYK2(JH1domain-catalytic),66%
same,remaining binding at 1 µM,panel of 468 kinases [3]; TYK2(JH2domain-pseudokinase),82%
same,remaining binding at 1 µM,panel of 468 kinases [4],100%
same,remaining binding at 1 µM,panel of 468 kinases [5],73%
same,remaining binding at 1 µM,panel of 468 kinases [6],69%
same,remaining binding at 1 µM,panel of 468 kinases [7],100%
same,remaining binding at 1 µM,panel of 468 kinases [8],96%

# Reference: patent US12479847B2 (DANA-FARBER CANCER INSTITUTE, INC., priority 2019, dated 2025)
